Experiments:
[1] = system: human osteo- and soft tissue sarcoma SJCRH30 cell line; assay: Cell growth inhibition 2, SJCRH30; format: cell-based; conditions: 384-well plate
carbonic anhydrase II = carbonic anhydrase II (Homo sapiens (Human), UniProt P00918); assay: Carbonic anhydrase II enzyme activity inhibition (4-NPA esterase activity); format: biochemical
[2] = system: Human colon cancer HCT-116 cell lines; assay: Antitumor effect on tumor cells transplanted into mice 1; format: in vivo
Protocol: Human colon cancer HCT-116 cell lines were washed in PBS and suspended at a concentration of 4×10^7 cells/mL. 0.1 mL of this cell suspension was subcutaneously implanted in the right chest of 6-week-old BALB/cAJcl-nu/nu mice (produced by CLEA Japan, Inc.).
(§1) The length and the width of the implanted tumor and the body weight were measured. The tumor volume (TV) was calculated using the following equation (equation D). TV(mm3)=(length×width^2)/2, wherein the unit of length and width is mm (equation D).
When the TV reached 100 to 300 mm3, the animals were assigned to each group in accordance with a stratified randomization procedure. The day was considered day 1, the TV on the day was considered TV1, and the body weight on the day was considered BW1.
A required amount of the test compound was weighed to prepare an administration solution.
(§2) Thereafter, the length and the width of the tumor and the body weight (BWn) on day n were measured over time in the same manner, and the TVn of each mouse was calculated. Further, the relative tumor volume (RTVn) was calculated based on the TVn of each mouse using the following equation (equation E); the treatment/control (T/C) value (%) was calculated based on the mean RTVn of each drug administration group using the following equation (equation F); and the weight change rate (BWCn) was calculated using the following equation (equation G). RTVn=TVn/TV1 (equation E) T/Cn(%)=(mean RTV of each drug administration group on the last day of the test)/(mean RTV of the control group on the last day of the test)×100 (equation F) BWCn (%)=(BWn−BW1)/BW1×100 (equation G) FIGS. 1 and 2, and Table 21 below show the results.

[3] = system: human acute lymphoblastic leukemia (ALL) CCRF-CEM cell lines; assay: Antitumor effect on tumor cells transplanted into mice 3; format: in vivo; conditions: CCRF-CEM xenograft in nude mice, 120 mg/kg/day intravenous
[4] = system: Human colon cancer HCT-116 cell lines; assay: Antitumor effect on tumor cells transplanted into mice 2; format: in vivo
[5] = system: human acute lymphoblastic leukemia (ALL) CCRF-CEM cell lines; assay: Antitumor effect on tumor cells transplanted into mice 3; format: in vivo; conditions: CCRF-CEM xenograft in nude mice, compound hydrochlorides intravenously, Dunnett's test
Protocol: as §1, §2
The tumor growth inhibitory effects on human tumors were evaluated as in Test Example 5, except that the compound hydrochloride obtained in Example 122, the compound hydrochloride (Example 64), and human acute lymphoblastic leukemia (ALL) CCRF-CEM cell lines were used, and the animals were assigned to each group in accordance with a stratified randomization procedure when the TV reached 140 to 380 mm3.
At this time, the cell lines were washed in PBS, and suspended in 50% PBS and 50% Matrigel basement membrane matrix (#356237; produced by BD Biosciences) at a concentration of 1×10^8 cells/mL. 0.1 mL of this cell suspension was subcutaneously implanted to the right chest of 6-week-old BALB/cAJcl-nu/nu mice (nude mice) (produced by CLEA Japan, Inc.). The compound hydrochloride (Example 122) was intravenously administered in an amount of 5 mL per 1 kg of body weight on days 1 and 8, and the compound hydrochloride (Example 133) was intravenously administered in an amount of 5 mL per 1 kg of body weight on days 1 and 8.

NS(=O)(=O)OC[C@@H]1C[C@@H](n2ccc3c(N[C@H]4CCc5ccccc54)ncnc32)C[C@@H]1O [Comparative Example, N-[(1S)-1-indanyl]-7-[(1R)-3α-hydroxy-4α-(sulfamoyloxymethyl)cyclopentyl]-7H-pyrrolo[2,3-d]pyrimidin-4-amine, reference compound]
IC50 [1]: > 10000 nM
IC50 (carbonic anhydrase II; 4-nitrophenyl acetate esterase activity, absorbance at 405 nm): 0.012 µM

NS(=O)(=O)OC[C@@H]1C[C@@H](n2ccc3c(N[C@H]4CCc5ccccc54)ncnc32)C[C@H]1O [Comparative Example, N-[(1S)-1-indanyl]-7-[(1R)-3α-hydroxy-4α-(sulfamoyloxymethyl)cyclopentyl]-7H-pyrrolo[2,3-d]pyrimidin-4-amine, reference compound]
T/C15 (%) ([2]; HCT-116 s.c. in BALB/cAJcl-nu/nu mice, 120 mg/kg/day intravenously on days 1, 4, 8, 11, day 15): 36%
RTV15 comparison with the control ([2]; HCT-116 xenograft, Dunnett's test): significantly lower than that of the control
BWC15 (%) Mean ± SD ([2]; body weight change, 120 mg/kg/day intravenously on days 1, 4, 8, 11, day 15): −14.3 ± 5.1%
T/C15 ([3]; administration days 1, 4, 8, 11, day 15): 47%
BWC15 Mean ± SD ([3]; body weight change rate, days 1, 4, 8, 11, day 15): 6.1 ± 2.6%
T/C15 ([4]; HCT-116 xenograft in mice, 120 mg/kg/day intravenous, administration days 1, 4, 8, 11, day 15): 51%
RTV15 comparison with the control ([4]; HCT-116 xenograft, hydrochloride compound of Example 55, Dunnett's test): significantly lower than that of the control
BWC15 Mean ± SD ([4]; body weight change rate, HCT-116 xenograft in mice, 120 mg/kg/day intravenous, days 1, 4, 8, 11, day 15): −8.4 ± 3.2%
RTV comparison with the control on day 15 [5]: significantly lower than that of the control
inhibitory activity against carbonic anhydrase II (carbonic anhydrase II): exhibited inhibitory activity
